According to patent US20060099173A1, “Topical skin care composition” (priority 2003, published 2006):
Where two headings read alike, the source gives them in different places.

Columns and labels:
[1] = in vivo
[2] = description of the substance; cited from earlier work
[3] = clinical; settings: human, in vivo

| Percutaneous absorption of unchanged drug into the systemic circulation [1] | Post-dose plasma concentrations [1] | Number of subjects with quantifiable plasma concentrations ([1]; human, 8 weeks) | Subjects with quantifiable plasma concentrations ([1]; human, 8 weeks) [%] | Cmax [3] [ng/mL] | Cmax ([1]; human) [ng/mL] | SMILES | Stability of the drug substance (light, air, moisture) [2] |
| --- | --- | --- | --- | --- | --- | --- | --- |
| minimal | undetectably low |  |  |  |  | CC1(C)O[C@@H]2C[C@H]3[C@@H]4C[C@H](F)C5=CC(=O)C=C[C@]5(C)[C@@]4(F)[C@@H](O)C[C@]3(C)[C@]2(C(=O)CO)O1 [fluocinolone acetonide, (6,11,16)-6,9-difluoro-11,21-dihydroxy-16,17-[(1-methylethylidene)bis(oxy)]-pregna-1,-4-diene-3,20-dione] | stable in light |
| minimal | undetectably low | 8 | 18 | 25.6 to 86.5 |  | Oc1ccc(O)cc1 [hydroquinone, 1,4-benzenediol] | darken on exposure to air |
| minimal |  |  |  | 2.01 to 5.34 | 2.0 to 4.99 | CC1=C(/C=C/C(C)=C/C=C/C(C)=C/C(=O)O)C(C)(C)CCC1 [tretinoin, (all-E)-3,7-dimethyl-9-(2,6,6-trimethyl-l-cyclohexen-1-yl)-2,4,6,8-nonatetraenoic acid] | highly reactive to light and moisture |
